The target of one assay is T1, IP receptor (Homo sapiens, UniProt P43119).
T1 construct: host or cells: HEK293 (IP/HEK293 cell line)
Put plainly: In-vitro agonist activity on IP receptor, FLIPR calcium test in IP/HEK293 cells. The class given is cell-based. As to conditions: 10 concentrations, 10-fold dilutions. As for the experimental part: The specific method is as follows: The IP/HEK293 cell line was provided by WuXi AppTec (Shanghai) Co., Ltd. Well-grown IP/HEK293 cells were taken out from the incubator, the culture solution was aspirated, the cells were washed with D-PBS and digested with trypsin EDTA, and then added with a cell culture solution, and the cells were fully suspended by repeated pipetting. The cells were centrifuged at room temperature, the supernatant was aspirated, a culture medium was added, and the cells were resuspended by repeated pipetting with a sterile pipette. After counting living cells with Vi-CELL™, 20 µL (20,000 cells/well) of cell suspension was added to a 384-well cell culture plate and incubated in a 5% CO2 incubator at 37°C overnight. 1 mL of FLIPR test buffer was added with 77 mg of probenecid to prepare 250 mM probenecid solution. After thawing a bottle of 2XFluo-4 DirectTM (F10471), the bottle was added with 10 mL of FLIPR test buffer containing 500 uM AEBSF, and each 10 mL of Fluo-Direct was added with 0.2 mL of probenecid, with a final concentration of 2.5 mM. The mixture was vortexed and then allowed to stand in the dark for more than 5 minutes. Each compound was placed in a water bath at 25°C for 30 minutes. Then, these compounds were sequentially diluted 10-fold with Bravo, with a total of 10 concentrations, for testing. 750 nL of each compound was transferred to a 384-well compound plate with ECHO. Then, the compound plate was added with 30 µL of detection buffer. The 384-well cell culture plate was taken out from the incubator, the culture medium was discarded, and 20 µL of test buffer and 20 µL of 2X Fluo-4 DirectTM No-Wash loading buffer were added with a pipette. The cell culture plate was incubated in a 5% CO2 incubator at 37°C for 50 minutes and incubated at room temperature for 10 minutes. The cell culture plate, the compound plate and a tip box were placed into FLIPR, FLIPRTETRA test program was operated, 10 µL of reference compound and 10 µL of test compound were aspirated from the compound plate to the cell culture plate, fluorescence signals were read, and then data were processed. The data were analyzed by using Prism.

For another assay, the system named is SD rats. The assay is described as follows: U46619-induced rat acute pulmonary arterial pressure rise model, airway nebulized administration (RVSP). The format is in vivo. The text has this: U46619 was a stable analogue of thromboxane A2 (TXA2), which activated the downstream IP3 signal by binding to the thromboxane A2 receptor to promote vasoconstriction, platelet aggregation and the like. Influences of compound C16-TR and equimolar compounds Ia-1, Ia-2, Ia-3, R-11 and R-12 at different time points after airway nebulized administration on pulmonary hypertension of rats were studied by using the U46619-induced rat pulmonary arterial pressure rise mode, which were compared with that of equimolar TRE after airway nebulized administration.
Preparation of test sample: a required amount of compound TRE was taken and added into a sterile EP tube, and each tube was added with an appropriate amount of DMSO for dissolution to prepare a stock solution (100 mg/mL). Compounds C16-TR, la-1, la-2, Ia-3, R-11 and R-12 were added with appropriate amounts of DMSO and dissolved in the original bottles to prepare stock solutions (100 mg/mL), and then the stock solutions were transferred to sterile EP tubes. Each above stock solution was hermetically stored in the dark in a refrigerator at 4°C. When the stock solution was tested, an appropriate amount of stock solution was taken and added into a new sterile EP tube, and diluted with DMSO and 1×PBS to a target concentration (working solution) wherein the solvent was 3% DMSO/1×PBS.
Preparation of modeling agent: 900 µL of methyl acetate was added into an original bottle of U46619 and mixed evenly to prepare 1 mg/mL(1 µg/µL) stock solution, which was divided into 10 µL (1 µg/µL) per sterile EP tube and stored in a refrigerator at -20°C. On the day of modeling, the stock solution was taken out and balanced at room temperature and constant temperature, and each tube was added with an appropriate amount of 0.9% sodium chloride solution (sterile) to be diluted 20-fold, so as to prepare a working solution with a concentration of 50 ng/µL.
Airway nebulized administration dosages of compound TRE and the test compounds were equimolar quantities calculated based on TRE. The dosage of compound TRE group (n=3) was 13.3 µg/kg, the dosage of compound C16-TR group (n=5) was 20.9 µg/kg, the dosage of compound Ia-1 group (n=3) was 21.2 µg/kg, the dosage of compound Ia-2 group (n=6) was 22.1 µg/kg, the dosage of compound Ia-3 group (n=6) was 23.1 µg/kg, the dosage of compound R-11 group (n=3) was 21.9 µg/kg, and the dosage of compound R-12 group (n=3) was 21.7 µg/kg. There were also a model control group (n=1) and a solvent control group (n=3).
The SD rats were injected with U46619 (25 µg /kg) through the left jugular vein at different time points after airway nebulized administration, the peak value of RVSP rise after injection with U46619 was observed and recorded, and the inhibition percentage on the RVSP rise was calculated by comparing with the basic RVSP value. The rats in the model control group were administered with U46619 by intravenous injection immediately after successful catheterization and measurement of the basic RVSP. RVSP of all animals were detected by right cardiac catheterization, and respiratory conditions of the animals were observed generally. Table-2 Time points of administrating U46619 in various groups

Experimental findings from EP4741374A1, “TREPROSTINIL DERIVATIVE, AND PREPARATION METHOD THEREFOR AND USE THEREOF” (CF PharmTech HongKong Limited, priority 2023, dated 2025) are described below.

T1 sequence (P43119 whole entry): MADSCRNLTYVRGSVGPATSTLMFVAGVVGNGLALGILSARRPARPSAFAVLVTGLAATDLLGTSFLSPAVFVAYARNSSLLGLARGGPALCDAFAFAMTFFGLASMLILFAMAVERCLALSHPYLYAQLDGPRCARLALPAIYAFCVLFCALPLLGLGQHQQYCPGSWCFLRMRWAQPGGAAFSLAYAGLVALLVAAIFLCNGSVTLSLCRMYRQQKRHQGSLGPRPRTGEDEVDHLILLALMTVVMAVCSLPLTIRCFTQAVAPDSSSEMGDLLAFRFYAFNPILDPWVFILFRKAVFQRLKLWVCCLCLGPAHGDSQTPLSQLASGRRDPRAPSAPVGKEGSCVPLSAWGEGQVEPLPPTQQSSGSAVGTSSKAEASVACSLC

Turning to `CCCCC[C@H](O)CC[C@@H]1[C@H]2Cc3cccc(OCC(=O)OCCCCCCCCOCCCCc4ccccc4)c3C[C@H]2C[C@H]1O` [Compound Ia-2], on IP receptor, the “agonist activity on IP receptor” value was “no agonist activity”. Further, the “antihypertensive effect and duration, overall” value in the assay with SD rats (1 to 48 hours after airway nebulized administration, equimolar doses) is “stronger antihypertensive effects than C16-TR and longer durations”. Besides, the antihypertensive effect result is recorded as “obvious antihypertensive effects” in the assay with SD rats (24 hours after airway nebulized administration, equimolar to 13.3 µg/kg TRE) and “absence of an antihypertensive effect” in the assay with SD rats (48 hours after airway nebulized administration).
